Experimental data from PubChem BioAssay (NCI).
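Step 1: Grow cells in 96-well plates. Step 2: Expose to compound for 48 hours at 5 concentrations. Step 3: Interpolate endpoints linearly; if unreached, use highest concentration. GI50 is the concentration that inhibits growth by half. TGI is the concentration that stops growth completely.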

Key:
Assay in all cases: NCI tumour cell line growth inhibition, 48 h
HCT-15 colon = tested on: HCT-15 colon
K-562 leukemia = tested on: K-562 leukemia
LOX IMVI melanoma = tested on: LOX IMVI melanoma
OVCAR-4 ovarian = tested on: OVCAR-4 ovarian
MDA-MB-435 = tested on: MDA-MB-435
T-47D breast = tested on: T-47D breast
OVCAR-5 ovarian = tested on: OVCAR-5 ovarian
HCT-116 colon = tested on: HCT-116 colon
TK-10 renal = tested on: TK-10 renal
A549 NSCLC = tested on: A549 NSCLC
SK-MEL-2 melanoma = tested on: SK-MEL-2 melanoma
ACHN renal = tested on: ACHN renal
SK-MEL-5 melanoma = tested on: SK-MEL-5 melanoma
EKVX NSCLC = tested on: EKVX NSCLC
NCI-H460 lung = tested on: NCI-H460 lung
NCI-H23 lung = tested on: NCI-H23 lung
OVCAR-8 ovarian = tested on: OVCAR-8 ovarian
SN12C renal = tested on: SN12C renal
NCI-H522 lung = tested on: NCI-H522 lung
NCI/ADR-RES ovarian = tested on: NCI/ADR-RES ovarian
RPMI-8226 leukemia = tested on: RPMI-8226 leukemia
HL-60(TB) leukemia = tested on: HL-60(TB) leukemia
UO-31 renal = tested on: UO-31 renal
SF-539 CNS = tested on: SF-539 CNS
IGROV1 ovarian = tested on: IGROV1 ovarian
MOLT-4 leukemia = tested on: MOLT-4 leukemia
KM12 colon = tested on: KM12 colon
SNB-19 CNS = tested on: SNB-19 CNS
PC-3 prostate = tested on: PC-3 prostate
MCF7 breast = tested on: MCF7 breast
SF-295 CNS = tested on: SF-295 CNS
OVCAR-3 ovarian = tested on: OVCAR-3 ovarian
HT29 colon = tested on: HT29 colon
SW-620 colon = tested on: SW-620 colon
SNB-75 CNS = tested on: SNB-75 CNS
SK-OV-3 ovarian = tested on: SK-OV-3 ovarian
DU-145 prostate = tested on: DU-145 prostate
HOP-62 NSCLC = tested on: HOP-62 NSCLC
CCRF-CEM leukemia = tested on: CCRF-CEM leukemia
UACC-62 melanoma = tested on: UACC-62 melanoma
SF-268 CNS = tested on: SF-268 CNS
U251 CNS = tested on: U251 CNS
CAKI-1 renal = tested on: CAKI-1 renal
786-0 renal = tested on: 786-0 renal
NCI-H226 lung = tested on: NCI-H226 lung
BT-549 breast = tested on: BT-549 breast
SK-MEL-28 melanoma = tested on: SK-MEL-28 melanoma
COLO 205 colon = tested on: COLO 205 colon
MALME-3M melanoma = tested on: MALME-3M melanoma
HOP-92 NSCLC = tested on: HOP-92 NSCLC
SR leukemia = tested on: SR leukemia
HS 578T breast = tested on: HS 578T breast
MDA-MB-231 breast = tested on: MDA-MB-231 breast
HCC-2998 colon = tested on: HCC-2998 colon
M14 melanoma = tested on: M14 melanoma
RXF 393 renal = tested on: RXF 393 renal
UACC-257 melanoma = tested on: UACC-257 melanoma

## CC(C)(Oc1ccc(Cl)cc1)C(=O)NC1C2CC3CC1CC(NS(C)(=O)=O)(C3)C2 (stereo unspecified)
HCT-15 colon
  GI50: > 100 µM
  TGI: > 100 µM
K-562 leukemia
  GI50: 34.3 µM
  TGI: > 100 µM
LOX IMVI melanoma
  GI50: > 100 µM
  TGI: > 100 µM
OVCAR-4 ovarian
  GI50: 23.3 µM
  TGI: > 100 µM
MDA-MB-435
  GI50: > 100 µM
  TGI: > 100 µM
T-47D breast
  GI50: > 100 µM
  TGI: > 100 µM
OVCAR-5 ovarian
  GI50: 68.4 µM
  TGI: > 100 µM
HCT-116 colon
  GI50: 38.5 µM
  TGI: > 100 µM
TK-10 renal
  GI50: > 100 µM
  TGI: > 100 µM
A549 NSCLC
  GI50: > 100 µM
  TGI: > 100 µM
SK-MEL-2 melanoma
  GI50: > 100 µM
  TGI: > 100 µM
ACHN renal
  GI50: 27.4 µM
  TGI: > 100 µM
SK-MEL-5 melanoma
  GI50: > 100 µM
  TGI: > 100 µM
EKVX NSCLC
  GI50: > 100 µM
  TGI: > 100 µM
NCI-H460 lung
  GI50: > 100 µM
  TGI: > 100 µM
NCI-H23 lung
  GI50: > 100 µM
  TGI: > 100 µM
OVCAR-8 ovarian
  GI50: > 100 µM
  TGI: > 100 µM
SN12C renal
  GI50: > 100 µM
  TGI: > 100 µM
NCI-H522 lung
  GI50: > 100 µM
  TGI: > 100 µM
NCI/ADR-RES ovarian
  GI50: > 100 µM
  TGI: > 100 µM
RPMI-8226 leukemia
  GI50: 20.9 µM
  TGI: 68.1 µM
HL-60(TB) leukemia
  GI50: 22.7 µM
  TGI: 58.8 µM
UO-31 renal
  GI50: > 100 µM
  TGI: > 100 µM
SF-539 CNS
  GI50: 37.5 µM
  TGI: > 100 µM
IGROV1 ovarian
  GI50: 54.9 µM
  TGI: > 100 µM
MOLT-4 leukemia
  GI50: 20.7 µM
  TGI: 84.6 µM
KM12 colon
  GI50: > 100 µM
  TGI: > 100 µM
SNB-19 CNS
  GI50: > 100 µM
  TGI: > 100 µM
PC-3 prostate
  GI50: 30.7 µM
  TGI: > 100 µM
MCF7 breast
  GI50: > 100 µM
  TGI: > 100 µM
SF-295 CNS
  GI50: > 100 µM
  TGI: > 100 µM
OVCAR-3 ovarian
  GI50: > 100 µM
  TGI: > 100 µM
HT29 colon
  GI50: > 100 µM
  TGI: > 100 µM
SW-620 colon
  GI50: > 100 µM
  TGI: > 100 µM
SNB-75 CNS
  GI50: 42.8 µM
  TGI: > 100 µM
SK-OV-3 ovarian
  GI50: > 100 µM
  TGI: > 100 µM
DU-145 prostate
  GI50: > 100 µM
  TGI: > 100 µM
HOP-62 NSCLC
  GI50: > 100 µM
  TGI: > 100 µM
CCRF-CEM leukemia
  GI50: 39.1 µM
  TGI: > 100 µM
UACC-62 melanoma
  GI50: 24.1 µM
  TGI: > 100 µM
SF-268 CNS
  GI50: > 100 µM
  TGI: > 100 µM
U251 CNS
  GI50: > 100 µM
  TGI: > 100 µM
CAKI-1 renal
  GI50: > 100 µM
  TGI: > 100 µM
786-0 renal
  GI50: 37.4 µM
  TGI: > 100 µM
NCI-H226 lung
  GI50: > 100 µM
  TGI: > 100 µM
BT-549 breast
  GI50: 29.1 µM
  TGI: 83.2 µM
SK-MEL-28 melanoma
  GI50: 26.8 µM
  TGI: > 100 µM
COLO 205 colon
  GI50: > 100 µM
  TGI: > 100 µM
MALME-3M melanoma
  GI50: 55.5 µM
  TGI: > 100 µM
HOP-92 NSCLC
  GI50: 19 µM
  TGI: 69.1 µM
SR leukemia
  GI50: 18.5 µM
  TGI: 58.9 µM
HS 578T breast
  GI50: 33.2 µM
  TGI: > 100 µM
MDA-MB-231 breast
  GI50: 66.8 µM
  TGI: > 100 µM
HCC-2998 colon
  GI50: > 100 µM
  TGI: > 100 µM
M14 melanoma
  GI50: 26.2 µM
  TGI: 80.1 µM

## CC(=O)c1c(-c2ccco2)c(C#N)c(=S)n(C2OC(CO)C(O)C(O)C2O)c1-c1ccccc1 (stereo unspecified)
HCT-15 colon
  TGI: > 100 µM
K-562 leukemia
  TGI: > 100 µM
RXF 393 renal
  TGI: > 100 µM
LOX IMVI melanoma
  TGI: > 100 µM
OVCAR-4 ovarian
  TGI: > 100 µM
MDA-MB-435
  TGI: > 100 µM
T-47D breast
  TGI: > 100 µM
OVCAR-5 ovarian
  TGI: > 100 µM
HCT-116 colon
  TGI: > 100 µM
TK-10 renal
  TGI: > 100 µM
A549 NSCLC
  TGI: > 100 µM
ACHN renal
  TGI: > 100 µM
SK-MEL-5 melanoma
  TGI: > 100 µM
EKVX NSCLC
  TGI: > 100 µM
NCI-H460 lung
  TGI: > 100 µM
NCI-H23 lung
  TGI: > 100 µM
OVCAR-8 ovarian
  TGI: > 100 µM
SN12C renal
  TGI: > 100 µM
NCI/ADR-RES ovarian
  TGI: > 100 µM
RPMI-8226 leukemia
  TGI: > 100 µM
HL-60(TB) leukemia
  TGI: 85.9 µM
UO-31 renal
  TGI: > 100 µM
SF-539 CNS
  TGI: > 100 µM
IGROV1 ovarian
  TGI: > 100 µM
MOLT-4 leukemia
  TGI: > 100 µM
KM12 colon
  TGI: > 100 µM
SNB-19 CNS
  TGI: 59.7 µM
PC-3 prostate
  TGI: > 100 µM
MCF7 breast
  TGI: > 100 µM
SF-295 CNS
  TGI: > 100 µM
OVCAR-3 ovarian
  TGI: > 100 µM
HT29 colon
  TGI: > 100 µM
SW-620 colon
  TGI: > 100 µM
SNB-75 CNS
  TGI: > 100 µM
SK-OV-3 ovarian
  TGI: > 100 µM
DU-145 prostate
  TGI: > 100 µM
HOP-62 NSCLC
  TGI: > 100 µM
CCRF-CEM leukemia
  TGI: > 100 µM
UACC-62 melanoma
  TGI: > 100 µM
SF-268 CNS
  TGI: > 100 µM
U251 CNS
  TGI: > 100 µM
CAKI-1 renal
  TGI: > 100 µM
BT-549 breast
  TGI: > 100 µM
SK-MEL-28 melanoma
  TGI: > 100 µM
COLO 205 colon
  TGI: > 100 µM
MALME-3M melanoma
  TGI: > 100 µM
SR leukemia
  TGI: > 100 µM
HS 578T breast
  TGI: > 100 µM
MDA-MB-231 breast
  TGI: > 100 µM
UACC-257 melanoma
  TGI: > 100 µM
M14 melanoma
  TGI: > 100 µM
